From US12533341B2, “Small molecule inhibitors of voltage-gated sodium channel 1.7 and methods of using same” (Duke University, priority 2019, dated 2026)
Entries after “also recorded” stand apart in the source; their conditions may differ.

Assays:
acute and chronic itch = assay: Itch models (acute, dry skin, allergic contact dermatitis); format: in vivo, mouse; settings: intrathecally at a dose of 30 mg/kg, dry skin and ACD itch models
Protocol: Mice are habituated to the testing environment daily for at least two days before analysis. Mice are shaved at the back of the neck the day before injection. Mice are left in small plastic chambers (14×18×12 cm) on an elevated metal mesh floor and allowed 30 min for habituation before examination. To elicit acute itch, pruritic agent 48/80 or chloroquine are injected intradermally in the nape of the neck and the number of scratched are counted every 5 min for 30 min after the injection. A scratch is counted when a mouse lifts its hindpaw to scratch the shaved region and returns the paw to the floor or to the mouth for the licking (Liu, et al. 2012; J Cin. Invest. 122(6):2195-2207).
To induce chronic itch, the neck skin is painted with acetone and diethyl ether (1:1) followed by water twice a day for 4 days, and spontaneous itch is examined by counting the number of scratches for 60 minutes on day 5. (Liu, et al. 2012, supra).
Chronic itch is induced by applying the hapten 1-fluoro-2,4-dinitrobenzene (DNFB) onto the back skin. (Liu, Ji, et al. 2016; Pain. 157(4):806-817; Zhao, et al. 2013; J Clin. Invest. 123(11):4769-4780). DNFB is dissolved in a mixture of acetone:olive oil (4:1) for sensitization and challenge. One day before sensitization, the surface of the abdomen and the nape of the neck are shaved. Mice are sensitized with 0.5% DNFB solution (50 μL) by topical application to a ˜2 cm^2 area of abdomen skin. Five days later, mice are challenged with 0.2% DNFB solution (30 μL) by painting the shave neck area, then every other day for one week. Spontaneous scratching behaviors are videoed for 1 hour, at 24 hours after each challenge. The behavioral tests of itch are performed blindly.
Animals in the itch models are dosed with N-substituted indoles 10, 11, and 12, which are administered intrathecally at a dose of 30 mg/kg.

[1] = system: neuropathic pain (CCI, SNI); assay: Neuropathic pain models (CCI, SNI); format: in vivo, mouse; settings: intrathecally at a dose of 30 mg/kg; CCI and SNI models
Protocol: Neuropathic pain is produced by chronic constriction injury (CCI) of the sciatic nerve. Mice are anesthetized with isoflurane, and three ligatures are 7-0 prolene placed around the nerve proximal to the trifurcation (1 mm between ligatures). The ligatures are loosely tied until a short flick of the ipsilateral hind limb is observed (Chen, Ji, et al. 2015; J Clin. Invest. 125(8):3226-3240).
SNI model. Neuropathic pain is produced by spared nerve injury (SNI). SNI surgery is conducted with a 5.0 silk tight ligation of the tibial and common peroneal nerves followed by transection and removal of a 3-5 mm nerve portion.
Animals in the neuropathic pain models are dosed with N-substituted indoles according to the present disclosure [N-(methylsulfonyl)-3-(3-oxo-1-(3-phenoxyphenyl)-3-((2-(pyrrolidin-1-yl)ethyl)amino)propyl)-1H-indole-1-carboxamide (10); (Z)-N-(5-((3-(3-oxo-1-(3-phenoxyphenyl)-3-((2-(pyrrolidin-1-yl)ethyl)amino)propyl)-1H-indol-1-yl)sulfonyl)-1,3,4-thiadiazol-2-yl)acetimidic acid (11); and 3-(3-phenoxyphenyl)-N-(2-(pyrrolidin-1-yl)ethyl)-3-(1-(thiazol-2-ylsulfonyl)-1H-indol-3-yl)propanamide (12)]. The compounds are synthesized according to the route outlined in Scheme 1 and are administered intrathecally at a dose of 30 mg/kg.

human Nav1.7 = human Nav1.7 (Homo sapiens, UniProt Q15858); assay: Whole-cell patch-clamp of sodium currents in Nav1.7-expressing HEK293 cells; format: cell-based; settings: 10 μM, screen of compounds 1-9 (FIG. 3)
Sequence of human Nav1.7 (Q15858 whole entry): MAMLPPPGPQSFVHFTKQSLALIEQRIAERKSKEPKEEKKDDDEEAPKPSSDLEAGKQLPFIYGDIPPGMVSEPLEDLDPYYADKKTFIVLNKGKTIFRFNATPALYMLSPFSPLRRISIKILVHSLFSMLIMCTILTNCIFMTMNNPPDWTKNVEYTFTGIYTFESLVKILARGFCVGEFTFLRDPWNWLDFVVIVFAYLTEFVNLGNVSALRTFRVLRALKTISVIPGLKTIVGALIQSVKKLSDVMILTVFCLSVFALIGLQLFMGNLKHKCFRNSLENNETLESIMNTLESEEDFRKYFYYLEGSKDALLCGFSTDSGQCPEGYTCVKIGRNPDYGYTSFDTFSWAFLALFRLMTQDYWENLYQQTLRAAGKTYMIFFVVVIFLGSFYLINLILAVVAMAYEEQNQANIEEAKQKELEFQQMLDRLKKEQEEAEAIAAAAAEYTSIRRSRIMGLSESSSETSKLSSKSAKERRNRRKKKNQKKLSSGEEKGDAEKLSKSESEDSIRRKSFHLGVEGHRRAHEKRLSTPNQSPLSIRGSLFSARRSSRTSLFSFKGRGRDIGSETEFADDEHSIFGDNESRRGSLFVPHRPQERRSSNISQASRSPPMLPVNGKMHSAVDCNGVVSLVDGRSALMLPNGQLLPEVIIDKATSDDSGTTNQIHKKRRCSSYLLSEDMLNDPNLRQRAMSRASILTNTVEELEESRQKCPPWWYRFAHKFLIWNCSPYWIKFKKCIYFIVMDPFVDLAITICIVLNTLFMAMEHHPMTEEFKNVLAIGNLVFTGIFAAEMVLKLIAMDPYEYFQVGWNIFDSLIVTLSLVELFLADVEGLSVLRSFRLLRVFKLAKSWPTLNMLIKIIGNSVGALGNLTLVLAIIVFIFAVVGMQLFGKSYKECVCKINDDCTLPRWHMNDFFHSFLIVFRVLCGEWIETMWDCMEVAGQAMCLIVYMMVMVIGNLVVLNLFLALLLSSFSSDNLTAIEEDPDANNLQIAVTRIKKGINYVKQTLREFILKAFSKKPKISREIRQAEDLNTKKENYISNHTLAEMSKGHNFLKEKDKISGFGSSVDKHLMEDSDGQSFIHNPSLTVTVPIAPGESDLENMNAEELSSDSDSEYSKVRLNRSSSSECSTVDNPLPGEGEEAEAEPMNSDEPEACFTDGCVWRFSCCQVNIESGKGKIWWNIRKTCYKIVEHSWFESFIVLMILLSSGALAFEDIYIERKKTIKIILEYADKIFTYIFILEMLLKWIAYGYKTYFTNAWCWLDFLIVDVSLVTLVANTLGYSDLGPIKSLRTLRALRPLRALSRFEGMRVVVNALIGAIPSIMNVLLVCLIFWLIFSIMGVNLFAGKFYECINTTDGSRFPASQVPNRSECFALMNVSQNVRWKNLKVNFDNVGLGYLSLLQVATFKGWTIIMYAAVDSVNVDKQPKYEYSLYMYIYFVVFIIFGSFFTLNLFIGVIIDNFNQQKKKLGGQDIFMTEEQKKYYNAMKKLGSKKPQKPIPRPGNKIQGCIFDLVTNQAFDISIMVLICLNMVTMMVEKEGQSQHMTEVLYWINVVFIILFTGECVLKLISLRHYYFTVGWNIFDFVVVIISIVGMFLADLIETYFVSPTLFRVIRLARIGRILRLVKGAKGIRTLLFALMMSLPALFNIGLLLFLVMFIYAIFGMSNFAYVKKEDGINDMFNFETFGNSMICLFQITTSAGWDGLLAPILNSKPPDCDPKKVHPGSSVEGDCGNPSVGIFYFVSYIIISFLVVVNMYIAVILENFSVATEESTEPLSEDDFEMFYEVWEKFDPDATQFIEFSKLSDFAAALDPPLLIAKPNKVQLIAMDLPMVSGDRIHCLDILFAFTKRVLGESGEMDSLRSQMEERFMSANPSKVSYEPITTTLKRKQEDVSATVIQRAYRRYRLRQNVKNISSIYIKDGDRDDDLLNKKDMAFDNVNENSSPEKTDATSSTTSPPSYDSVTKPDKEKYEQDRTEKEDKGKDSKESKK
Protocol: HEK-hNav1.7 stable cell line was purchased from SB Drug Discovery (Glasgow, United Kingdom). Human embryonic kidney 293 (HEK293) cells were obtained from the ATCC and maintained at the Duke cell culture facility. Cells were cultured in high-glucose (4.5 g/L) DMEM containing 10% (v/v) FBS (Gibco) and streptomycin/penicillin. For Nav1.7-expressing HEK293 cells, an additional antibiotic, blasticidin, was included. hNav1.5 transfection was performed by Lipofectamine 2000 at 70% confluence using 2 μg cDNA. The transfected cells were cultured in the same growth medium for 48 h before biochemical or electrophysiological studies.
Whole-cell patch-clamp recordings were conducted at room temperature. Patch pipettes pulled from borosilicate capillaries (World Precision Instruments, Inc., Sarasota, FL) were used to record transient Na currents with an Axopatch-200B amplifier with a Digidata 1440A (Axon Instruments, Sunnyvale CA). The resistance was set to 3-4 MΩ when filled with pipette solution. The pipette solution contained (in mmol/L): CsCl 130, NaCl 9, MgCl2 1, EGTA 10, HEPES 10, adjusted to pH 7.3 with CsOH. The external solution for recording transient Na^+ currents contained (in mmol/L): NaCl 131, TEACl 10, CsCl 10, CaCl2) 1, MgCl2 2, CdCl2 0.3, 4-aminopyridine 3, HEPES 10, glucose 10, adjusted to pH 7.4 with NaOH. The recording chamber (300 μL) was continuously superfused at 3-4 mL/min. Series resistance was compensated (>80%) and leak subtraction was performed. Data were low-pass-filtered at 2 kHz and sampled at 10 kHz. pClamp10 (Axon Instruments) software was used during experiments and analysis. In voltage-clamp experiments, transient Na+ currents were evoked by a test pulse to 0 mV from the holding potential (−70 mV).
The effects of the 9 selected compounds on Nav1.7 channel activities were tested using patch-clamp recordings on human Nav1.7 expressing HEK293 cells (FIG. 3, FIG. 4). In each cell, sodium currents were recorded for 13 min, and candidate inhibitors (10 μM) were incubated for 2 min after 2 min baseline recording (FIG. 3). Compound was applied at the beginning of the second minute for two minutes (denoted as a horizontal line above the X-axis). Sodium currents were recorded at equal intervals (every 20 seconds, 40 recordings per compound per cell). Data was analyzed with a two-way repeated measures ANOVA, followed by a post-hoc test of the last timepoint Bonferroni-corrected for 9 pairwise comparisons (each compound was compared with control). […] Sample size n=3 to 7 cells per group.
For FIG. 4C, sample size was n=5 to 7 cells per group. Compound was applied at the beginning of the second minute for two minutes (denoted as a horizontal line above the X-axis). Sodium currents were recorded every 20 seconds.

[2] = system: paclitaxel-induced mechanical allodynia; assay: Paclitaxel-induced neuropathic pain model (von Frey); format: in vivo, mouse; settings: intrathecal 10 nmol and 30 nmol, mice
Protocol: Intraperitoneal injection of paclitaxel (PTX, 2 mg/kg for multiple injections at day 0, 2, 4, and 6) was given to generate chemotherapy-associated neuropathic pain. Neuropathic pain behavior was tested 3 weeks after PTX injection using a von Frey test. Briefly, animals were habituated to the testing environment daily for at least 2 days before the baseline testing. Animals were confined in boxes placed on an elevated metal mesh floor and the hind paws were stimulated with a series of von Frey hairs with logarithmically increasing stiffness (0.02-2.56 g, Stoelting), presented perpendicularly to the central plantar surface. The 50% paw withdrawal threshold was determined by an up-down method.

difference in relative current from the control group at the last measurement (human Nav1.7)	Compound	reduction of scratching in itch models (acute and chronic itch)	reduction of pain in neuropathic pain models [1]	anti-allodynic effect in the paclitaxel model [2]
–	O=C(CC(c1cccc(Oc2ccccc2)c1)c1cn(S(=O)(=O)c2nccs2)c2ccccc12)NCCN1CCCC1 (stereo not shown) [Compound 12, 3-(3-phenoxyphenyl)-N-(2-(pyrrolidin-1-yl)ethyl)-3-(1-(thiazol-2-ylsulfonyl)-1H-indol-3-yl)propanamide]	Reduction of scratching is observed	Reduction of pain is observed	–
0.29	Cc1ccc(Cn2cc(C(CC(=O)NCc3ccncc3)c3cccc(Oc4ccc(Cl)cc4)c3)c3ccccc32)cc1 (stereo not shown) [Compound 5]	–	–	–
0.35	COc1ccc(Cn2cc(C(CC(=O)NCc3ccccc3)c3cccc(OCc4ccccc4)c3)c3ccccc32)cc1 (stereo not shown) [Compound 7]	–	–	–
0.36	COc1ccc(Cn2cc(C(CC(=O)NCc3ccco3)c3cccc(Oc4ccccc4)c3)c3ccccc32)cc1 (stereo not shown) [Compound 8]	–	–	–
–	CS(=O)(=O)NC(=O)n1cc(C(CC(=O)NCCN2CCCC2)c2cccc(Oc3ccccc3)c2)c2ccccc21 (stereo not shown) [Compound 10, N-(methylsulfonyl)-3-(3-oxo-1-(3-phenoxyphenyl)-3-((2-(pyrrolidin-1-yl)ethyl)amino)propyl)-1H-indole-1-carboxamide]	Reduction of scratching is observed	Reduction of pain is observed	–
–	CC(=O)Nc1nnc(S(=O)(=O)n2cc(C(CC(=O)NCCN3CCCC3)c3cccc(Oc4ccccc4)c3)c3ccccc32)s1 (stereo not shown) [Compound 11, (Z)-N-(5-((3-(3-oxo-1-(3-phenoxyphenyl)-3-((2-(pyrrolidin-1-yl)ethyl)amino)propyl)-1H-indol-1-yl)sulfonyl)-1,3,4-thiadiazol-2-yl)acetimidic acid]	Reduction of scratching is observed	Reduction of pain is observed	–
–	Nc1[nH]ncc1-c1cc(Cl)ccc1Oc1cc(F)c(S(=O)(=O)Nc2cscn2)cc1Cl [PF-05089771, reference compound]	–	–	failed to produce any anti-allodynic effect; also recorded: did not produce anti-allodynia effects
